Laboratory results as given in ChEMBL document CHEMBL1201862, “PubChem BioAssay data set” (2004).
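Method: 48-hour compound exposure of cells in 96-well plates, five concentrations, linear interpolation of endpoints. GI50 marks 50% less growth.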 Active and inactive are the calls of the source. No stated cut-off is given here; in the data, active = GI50 up to about 1.1 µM and inactive = higher.

Legend:
Test in all cases: growth of human tumour cells (NCI), 48 h
IGROV-1 = test system: IGROV-1
NCI-H460 = test system: NCI-H460
MOLT-4 = test system: MOLT-4
SF-295 = test system: SF-295
UACC-62 = test system: UACC-62
DMS-273 = test system: DMS-273
NCI-H522 = test system: NCI-H522
NCI-H23 = test system: NCI-H23
NCI-H226 = test system: NCI-H226
U-251 = test system: U-251
SNB-78 = test system: SNB-78
LOX IMVI = test system: LOX IMVI
HOP-92 = test system: HOP-92
OVCAR-4 = test system: OVCAR-4
SF-539 = test system: SF-539
OVCAR-5 = test system: OVCAR-5
SNB-75 = test system: SNB-75
HOP-62 = test system: HOP-62
K562 = test system: K562
SK-MEL-2 = test system: SK-MEL-2
SF-268 = test system: SF-268
NCI/ADR-RES = test system: NCI/ADR-RES
CAKI-1 = test system: CAKI-1
SNB-19 = test system: SNB-19
OVCAR-8 = test system: OVCAR-8
SK-MEL-28 = test system: SK-MEL-28
M19-MEL = test system: M19-MEL
A498 = test system: A498
SW-620 = test system: SW-620
UACC-257 = test system: UACC-257
KM12 = test system: KM12
UO-31 = test system: UO-31
SK-MEL-5 = test system: SK-MEL-5
A549 = test system: A549
MCF7 = test system: MCF7
SK-OV-3 = test system: SK-OV-3
DMS-114 = test system: DMS-114
COLO 205 = test system: COLO 205
HOP-18 = test system: HOP-18
RXF 393 = test system: RXF 393
RPMI-8226 = test system: RPMI-8226
Malme-3M = test system: Malme-3M
HCT-15 = test system: HCT-15
KM-20L2 = test system: KM-20L2
HCC 2998 = test system: HCC 2998
DLD-1 = test system: DLD-1
HL-60 = test system: HL-60
EKVX = test system: EKVX
SN12C = test system: SN12C
XF498 = test system: XF498
HT-29 = test system: HT-29
HCT-116 = test system: HCT-116
CCRF-CEM = test system: CCRF-CEM
OVCAR-3 = test system: OVCAR-3

Measured: GI50

CC[C@]12C=CCN3CC[C@@]4(c5ccc(OC)cc5N(C)[C@H]4[C@@](O)(C(=O)OC)[C@@H]1OC(C)=O)[C@@H]32
75.3 µM: HCT-15
inactive: IGROV-1 > 185 µM | NCI-H460 177 µM | MOLT-4 81.3 µM | SF-295 152 µM | UACC-62 143 µM | DMS-273 > 140 µM | NCI-H522 97.9 µM | NCI-H23 > 171 µM | NCI-H226 132 µM | U-251 > 200 µM | SNB-78 195 µM | LOX IMVI > 200 µM | HOP-92 46.2 µM | OVCAR-4 35.4 µM | SF-539 > 200 µM | OVCAR-5 > 200 µM | SNB-75 51.3 µM | HOP-62 171 µM | K562 131 µM | SK-MEL-2 182 µM | SF-268 138 µM | NCI/ADR-RES 156 µM | CAKI-1 15.5 µM | SNB-19 > 200 µM | OVCAR-8 19.5 µM | SK-MEL-28 > 200 µM | M19-MEL 57.5 µM | A498 102 µM | SW-620 > 200 µM | UACC-257 172 µM | KM12 > 200 µM | UO-31 59 µM | SK-MEL-5 99.5 µM | A549 162 µM | MCF7 147 µM | SK-OV-3 > 200 µM | DMS-114 140 µM | COLO 205 > 185 µM | HOP-18 > 200 µM | RXF 393 96.8 µM | RPMI-8226 93.8 µM | Malme-3M > 200 µM | KM-20L2 > 101 µM | HCC 2998 > 200 µM | DLD-1 > 200 µM | HL-60 89.3 µM | EKVX > 151 µM | SN12C > 183 µM | XF498 > 172 µM | HT-29 > 200 µM | HCT-116 172 µM | CCRF-CEM 132 µM | OVCAR-3 102 µM

CCOC(=O)CN1CCS/C1=N/C#N
inactive: IGROV-1 > 100 µM | NCI-H460 > 31.6 µM | MOLT-4 > 100 µM | UACC-62 > 100 µM | DMS-273 > 100 µM | NCI-H522 > 100 µM | NCI-H23 > 87.5 µM | NCI-H226 > 100 µM | U-251 > 100 µM | SNB-78 > 100 µM | HOP-92 > 60 µM | OVCAR-4 > 100 µM | SF-539 > 100 µM | OVCAR-5 4.22 µM | SNB-75 > 100 µM | HOP-62 > 100 µM | K562 > 100 µM | SK-MEL-2 > 100 µM | SF-268 > 100 µM | NCI/ADR-RES > 100 µM | CAKI-1 > 100 µM | SNB-19 > 100 µM | OVCAR-8 > 100 µM | SK-MEL-28 > 100 µM | M19-MEL > 100 µM | A498 > 100 µM | SW-620 > 100 µM | UACC-257 > 100 µM | KM12 > 100 µM | UO-31 > 100 µM | SK-MEL-5 > 100 µM | A549 > 100 µM | MCF7 > 100 µM | SK-OV-3 > 100 µM | DMS-114 > 100 µM | COLO 205 > 100 µM | HOP-18 > 100 µM | RXF 393 > 100 µM | RPMI-8226 > 100 µM | Malme-3M > 100 µM | KM-20L2 > 100 µM | HCC 2998 > 100 µM | DLD-1 > 100 µM | HL-60 > 100 µM | EKVX > 100 µM | SN12C > 100 µM | XF498 > 100 µM | HT-29 > 42.4 µM | HCT-116 > 100 µM | CCRF-CEM > 100 µM | OVCAR-3 > 100 µM
> 100 µM: HCT-15
